Measurements reported in patent publication US11019821B2, “Fused bicyclic heterocycle derivatives as pesticides” (Bayer Aktiengesellschaft, priority 2018, dated 2021).

Tests used:
Boophilus microplus = Boophilus microplus injection test; format: in vivo; details: application rate 20 μg/animal, assessed after 7 days, engorged adult female cattle ticks
Procedure: (§1) Solvent: dimethyl sulfoxide
To produce a suitable active ingredient formulation, 10 mg of active ingredient are mixed with 0.5 ml of solvent and the concentrate is diluted to the desired concentration with solvent.
1 μl of the active ingredient solution is injected into the abdomen of 5 engorged adult female cattle ticks (Boophilus microplus). The animals are transferred into dishes and kept in a climate-controlled room.
Efficacy is assessed after 7 days by laying of fertile eggs. Eggs which are not visibly fertile are stored in a climate-controlled cabinet until the larvae hatch after about 42 days. An efficacy of 100% means that none of the ticks has laid any fertile eggs; 0% means that all the eggs are fertile.

Myzus persicae [1] = assay: Myzus persicae oral test; format: in vivo; details: 120 h, application rate 4 ppm, after 5 days, read-out: efficacy (aphids killed)
Procedure: To produce a suitable active ingredient formulation, 1 part by weight of active ingredient is dissolved with the stated parts by weight of solvent and made up to the desired concentration with water.
50 μl of the active ingredient preparation are transferred into microtitre plates and made up to a final volume of 200 μl with 150 μl of IPL41 insect medium (33%+15% sugar). Subselog Puently, the plates are sealed with parafilm, which a mixed population of green peach aphids (Myzus persicae) within a second microtitre plate is able to puncture and imbibe the solution.
(§2) After 5 days, the efficacy in % is determined. 100% means that all the aphids have been killed; 0% means that no aphids have been killed.

Ctenocephalides felis = Ctenocephalides felis oral test; format: in vivo; details: application rate 100 ppm in citrated cattle blood, after 2 days, adult cat fleas
Procedure: as §1
To produce a suitable active ingredient formulation, 10 mg of active ingredient are mixed with 0.5 ml of dimethyl sulfoxide. Dilution with citrated cattle blood gives the desired concentration.
About 20 unfed adult cat fleas (Ctenocephalides felis) are placed into a chamber which is closed at the top and bottom with gauze. A metal cylinder whose bottom end is closed with parafilm is placed onto the chamber. The cylinder contains the blood/active ingredient formulation, which can be imbibed by the fleas through the parafilm membrane.
After 2 days, the kill in % is determined. 100% means that all of the fleas have been killed; 0% means that none of the fleas have been killed.

Myzus persicae [2] = assay: Myzus persicae spray test; format: in vivo; details: foliar, 120 h, application rate 100 g/ha, after 5 days, Chinese cabbage leaf discs, read-out: efficacy (aphids killed)
Procedure: (§3) To produce a suitable active ingredient formulation, 1 part by weight of active ingredient is dissolved with the specified parts by weight of solvent and made up to the desired concentration with water containing an emulsifier concentration of 1000 ppm. To produce further test concentrations, the formulation is diluted with emulsifier-containing water.
Discs of Chinese cabbage leaves (Brassica pekinensis) infested by all stages of the green peach aphid (Myzus persicae) are sprayed with an active ingredient formulation of the desired concentration.
as §2

Tetranychus urticae = Tetranychus urticae spray test, OP-resistant; format: in vivo; details: application rate 100 g/ha, after 6 days, bean leaf discs
Procedure: as §3
Discs of bean leaves (Phaseolus vulgaris) infested with all stages of the greenhouse red spider mite (Tetranychus urticae) are sprayed with an active ingredient formulation of the desired concentration.
After 6 days, the efficacy in % is determined. 100% means that all the spider mites have been killed; 0% means that no spider mites have been killed.

Spodoptera frugiperda = Spodoptera frugiperda spray test; format: in vivo; details: application rate 100 g/ha, after 7 days, maize leaf discs
Procedure: as §3
Leaf discs of maize (Zea mays) are sprayed with an active ingredient formulation of the desired concentration and, after drying, populated with caterpillars of the armyworm (Spodoptera frugiperda).
After 7 days, the efficacy in % is determined. 100% means that all the caterpillars have been killed; 0% means that no caterpillar has been killed.

[3] = log P by HPLC on reversed-phase column, acidic range; format: physicochemical; details: reversed-phase HPLC column (C 18); pH 2.7, 0.1% aqueous formic acid and acetonitrile, C 18 column, 55° C.; read-out: log P (HCOOH)
Procedure: The log P values are measured according to EEC Directive 79/831 Annex V.A8 by HPLC (high-performance lilog Puid chromatography) on a reversed-phase column (C 18). Temperature: 55° C.
The LC-MS determination in the acidic range is effected at pH 2.7 with 0.1% alog Pueous formic acid and acetonitrile (containing 0.1% formic acid) as eluents; linear gradient from 10% acetonitrile to 95% acetonitrile. Called log P (HCOOH) in the table.
Calibration is effected using unbranched alkan-2-ones (having 3 to 16 carbon atoms) with known log P values (log P values determined on the basis of the retention times by linear interpolation between two successive alkanones).

Phaedon cochleariae = Phaedon cochleariae spray test; format: in vivo; details: application rate 100 g/ha, after 7 days, Chinese cabbage leaf discs
Procedure: as §3
Discs of Chinese cabbage leaves (Brassica pekinensis) are sprayed with an active ingredient formulation of the desired concentration and, after drying, populated with larvae of the mustard beetle (Phaedon cochleariae).
After 7 days, the efficacy in % is determined. 100% means that all the beetle larvae have been killed; 0% means that no beetle larvae have been killed.

Diabrotica balteata = Diabrotica balteata spray test; format: in vivo; details: application rate 160 μg/cavity, after 7 days, beetle larvae on germinated wheat grains
Procedure: To produce an appropriate active ingredient formulation, 1 part by weight of active ingredient is dissolved with the given parts by weight of solvent and made up with water containing an emulsifier concentration of 1000 ppm until the desired concentration is attained. Further test concentrations are produced by diluting with emulsifier-containing water.
Pre-swollen wheat grains (Triticum aestivum) are incubated in a multiwell plate filled with agar and a little water for one day (5 seed grains per cavity). The germinated wheat grains are sprayed with an active ingredient formulation of the desired concentration. Subselog Puently, each cavity is infected with 10-20 Diabrotica balteata beetle larvae.
After 7 days, efficacy in % is determined. 100% means that all wheat plants have grown as in the untreated, uninfected control; 0% means that no wheat plant has grown.

Structure (SMILES)	pest or weed control at 4 ppm (Myzus persicae [1]) [%]	pest or weed control at 100 g/ha (Myzus persicae [2]) [%]	efficacy (caterpillars killed) (Spodoptera frugiperda) [%]	other results
CCS(=O)(=O)c1c(-c2nc3cc(C(F)(F)C(F)(F)F)ncc3n2C)nn2c1CC(C)CC2 (centres unmarked) [Example I-13]	100	90	100	efficacy (no laying of fertile eggs) (Boophilus microplus): 100%; efficacy (kill in %) (Ctenocephalides felis): 100%; efficacy (spider mites killed) (Tetranychus urticae): 100%
CCS(=O)(=O)c1c(-c2nc3cc(OC(F)(F)F)cnc3n2C)nn2c1CCC(C)C2 (centres unmarked) [Example I-09]	90	90	–	–
O=C(O)c1nn2c(c1Br)CC(C(F)(F)F)CC2 (centres unmarked) [3-Bromo-5-(trifluoromethyl)-4,5,6,7-tetrahydropyrazolo[1,5-a]pyridine-2-carboxylic acid]	–	–	–	chromatographic logP [3]: 1.75
CCS(=O)(=O)c1c(-c2nc3cc(C(F)(F)C(F)(F)F)cnc3n2C)nn2c1CCC(C)C2 (centres unmarked) [Example I-08]	100	–	100	–
CCS(=O)(=O)c1c(-c2nc3cc(C(F)(F)F)cnc3n2C)nn2c1CC(C)CC2 (centres unmarked) [Example I-10]	100	90	–	efficacy (spider mites killed) (Tetranychus urticae): 90%
CCS(=O)(=O)c1c(-c2nc3cc([S+]([O-])C(F)(F)F)cnc3n2C)nn2c1CCC(C)C2 (centres unmarked) [Example I-14]	100	100	–	–
CCS(=O)(=O)c1c(-c2nc3cc(C(F)(F)F)cnc3n2C)nn2c1CCCC2 [Example I-03]	100	90	–	efficacy (beetle larvae killed) (Phaedon cochleariae): 100%
CCS(=O)(=O)c1c(-c2nc3cc(C(F)(F)C(F)(F)F)cnc3n2C)nn2c1CCC(C(F)(F)F)C2 (centres unmarked) [Example I-19]	100	–	100	efficacy (wheat plants grown as in untreated, uninfected control) (Diabrotica balteata): 100%
CCS(=O)(=O)c1c(-c2nc3cc(C(F)(F)F)cnc3n2C)nn2c1CC(C(F)(F)F)CC2 (centres unmarked) [Example I-01, 2-[3-Ethylsulfonyl-5-(trifluoromethyl)-4,5,6,7-tetrahydropyrazolo[1,5-a]pyridin-2-yl]-3-methyl-6-(trifluoromethyl)imidazo[4,5-b]pyridine]	100	–	100	chromatographic logP [3]: 3.21; efficacy (beetle larvae killed) (Phaedon cochleariae): 100%
CCS(=O)(=O)c1c(-c2nc3c(n2C)CN(C)C(C(F)(F)F)=C3)nn2c1CCC(C(F)(F)F)C2 (centres unmarked) [Example I-18]	100	90	–	efficacy (wheat plants grown as in untreated, uninfected control) (Diabrotica balteata): 100%
CCS(=O)(=O)c1c(-c2nc3cc(C(F)(F)F)ncc3n2C)nn2c1CC(C(F)(F)F)CC2 (centres unmarked) [Example I-04]	100	100	–	efficacy (spider mites killed) (Tetranychus urticae): 100%
CCS(=O)(=O)c1c(-c2nc3cc(C(F)(F)F)cnc3n2C)nn2c1CCC(C)C2 (centres unmarked) [Example I-07]	100	–	–	–
Cn1c(-c2nn3c(c2Br)CC(C(F)(F)F)CC3)nc2cc(C(F)(F)F)cnc21 (centres unmarked) [2-[3-Bromo-5-(trifluoromethyl)-4,5,6,7-tetrahydropyrazolo[1,5-a]pyridin-2-yl]-3-methyl-6-(trifluoromethyl)imidazo[4,5-b]pyridine]	–	–	–	chromatographic logP [3]: 3.99
CCS(=O)(=O)c1c(-c2nc3cc(C(F)(F)F)ncc3n2C)nn2c1CCC(C)C2 (centres unmarked) [Example I-06]	–	90	–	–
CCS(=O)(=O)c1c(-c2nc3cc(C(F)(F)C(F)(F)F)ncc3n2C)nn2c1CCCC2 [Example I-12]	100	90	–	efficacy (beetle larvae killed) (Phaedon cochleariae): 100%
CCS(=O)(=O)c1c(-c2nc3cc(S(=O)(=O)C(F)(F)F)cnc3n2C)nn2c1CCC(C)C2 (centres unmarked) [Example I-15]	90	90	100	efficacy (kill in %) (Ctenocephalides felis): 90%
CCS(=O)(=O)c1c(-c2nc3cc(C(F)(F)C(F)(F)F)ncc3n2C)nn2c1CCC(C(F)(F)F)C2 (centres unmarked) [Example I-17]	100	–	100	efficacy (wheat plants grown as in untreated, uninfected control) (Diabrotica balteata): 100%
CCS(=O)(=O)c1c(-c2nc3cc(SC(F)(F)F)cnc3n2C)nn2c1CCC(C)C2 (centres unmarked) [Example I-11]	100	90	83	efficacy (kill in %) (Ctenocephalides felis): 100%
O=C(O)c1cc2n(n1)CCC(C(F)(F)F)C2 (centres unmarked) [5-(Trifluoromethyl)-4,5,6,7-tetrahydropyrazolo[1,5-a]pyridine-2-carboxylic add]	–	–	–	chromatographic logP [3]: 1.28
COC(=O)c1nn2ccc(C(F)(F)F)cc2c1C(=O)OC [Dimethyl 5-(trifluoromethyl)pyrazolo[1,5-a]pyridine-2,3-dicarboxylate]	–	–	–	chromatographic logP [3]: 2.57
O=C(O)c1cc2cc(C(F)(F)F)ccn2n1 [5-(Trifluoromethyl)pyrazolo[1,5-a]pyridine-2-carboxylic add]	–	–	–	chromatographic logP [3]: 1.58
CCS(=O)(=O)c1c(-c2nc3cc(S(=O)(=O)C(F)(F)F)ccc3o2)nn2c1CCC(C)C2 (centres unmarked) [Example I-16]	90	–	–	–
